The source of these data is ChEMBL document CHEMBL5380822, “Design, Synthesis, and Biological Evaluation of Novel Hybrids Containing Dihydrochalcone as Tyrosinase Inhibitors to Treat Skin Hyperpigmentation” (J Med Chem, 2023).

For orientation: IC50 means the point on the concentration scale where inhibition reaches its midpoint.

Data set [1] has as its target T1, Mushroom tyrosinase (Agaricus bisporus, UniProt O42713+Q00024+C7FF04+C7FF05). Briefly: Inhibition of Agaricus bisporus tyrosinase using L-tyrosine as substrate preincubated with compound for 20 mins followed by substrate addition measured after 10 mins by absorbance based assay.
Data set [2] concerns the target T1, Mushroom tyrosinase. Briefly: Inhibition of Agaricus bisporus tyrosinase using L-dopa as substrate preincubated with compound for 20 mins followed by substrate addition measured after 5 mins by absorbance based assay.
Data set [3] addresses T2, Tyrosinase (Homo sapiens) (UniProt P14679).
T2 sequence (whole entry): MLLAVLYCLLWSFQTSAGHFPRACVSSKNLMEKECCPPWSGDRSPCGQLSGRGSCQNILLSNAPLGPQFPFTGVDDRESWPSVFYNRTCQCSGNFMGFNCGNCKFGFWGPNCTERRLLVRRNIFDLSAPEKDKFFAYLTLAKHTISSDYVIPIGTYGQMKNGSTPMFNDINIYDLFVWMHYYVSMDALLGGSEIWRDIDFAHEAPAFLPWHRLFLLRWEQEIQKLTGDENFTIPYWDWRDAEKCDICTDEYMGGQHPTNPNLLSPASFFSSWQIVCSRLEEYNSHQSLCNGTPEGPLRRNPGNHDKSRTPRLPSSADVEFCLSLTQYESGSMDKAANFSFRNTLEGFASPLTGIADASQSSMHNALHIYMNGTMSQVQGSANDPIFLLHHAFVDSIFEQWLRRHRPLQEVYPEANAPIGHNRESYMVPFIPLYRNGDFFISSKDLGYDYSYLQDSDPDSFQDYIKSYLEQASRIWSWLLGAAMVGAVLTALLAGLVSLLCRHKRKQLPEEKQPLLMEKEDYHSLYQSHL
Briefly: Inhibition of TYR in alpha-MSH-stimulated human A-375 cells using L-Dopa as substrate at 20 uM incubated for 24 hrs by absorbance based assay. Type of data set: cell-based.

The subject of data set [4] is B16-F10. Briefly: Cytotoxicity against mouse B16-F10 cells at 50 uM incubated for 72 hrs by MTT assay. Type of data set: toxicity, cell-based. The note with it: b16-f10, 72 h. For orientation: Tetrazolium dyes change colour on reduction, which living cells bring about.
Data set [5] deals with T3, Tyrosinase (Mus musculus) (UniProt P11344).
T3 sequence (whole entry): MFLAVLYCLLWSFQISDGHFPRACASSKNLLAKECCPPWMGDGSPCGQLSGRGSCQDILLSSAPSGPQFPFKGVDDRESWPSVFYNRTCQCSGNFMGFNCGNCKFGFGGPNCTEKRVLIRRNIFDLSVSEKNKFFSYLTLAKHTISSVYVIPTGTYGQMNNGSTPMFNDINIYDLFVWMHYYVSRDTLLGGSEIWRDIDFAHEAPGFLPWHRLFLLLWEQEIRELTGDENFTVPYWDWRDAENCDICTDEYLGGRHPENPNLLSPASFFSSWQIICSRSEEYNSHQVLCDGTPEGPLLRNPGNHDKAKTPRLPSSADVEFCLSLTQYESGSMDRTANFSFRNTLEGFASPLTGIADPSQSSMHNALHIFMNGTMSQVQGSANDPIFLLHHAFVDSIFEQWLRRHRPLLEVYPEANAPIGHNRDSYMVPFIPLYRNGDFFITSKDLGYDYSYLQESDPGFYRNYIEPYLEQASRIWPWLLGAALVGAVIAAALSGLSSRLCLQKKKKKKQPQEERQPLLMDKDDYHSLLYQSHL
As to the kind of experiment: Inhibition of TYR in alpha-MSH-stimulated mouse B16-F10 cells using L-Dopa as substrate incubated for 24 hrs by absorbance based assay. Type of data set: cell-based. The note with it: dose 5-25 µM.

The test system of data set [6] is B16-F10. As to the kind of experiment: Anti-melanogenic activity against alpha-MSH-stimulated mouse B16-F10 cells assessed as decrease in melanin content incubated for 24 hrs by absorbance based assay. The data set is classed as functional, cell-based. The note with it: dose 5-25 µM.
Data set [7] concerns A-375. Briefly: Cytotoxicity against human A-375 cells at 50 uM incubated for 72 hrs by MTT assay. The data set is classed as toxicity, cell-based. The note with it: a-375, 72 h.
For data set [8], the system named is A-375. As to the kind of experiment: Anti-melanogenic activity against alpha-MSH-stimulated human A-375 cells assessed as decrease in melanin content at 20 uM incubated for 24 hrs by absorbance based assay. Type of data set: functional, cell-based.
The test system of data set [9] is B16-F10. Briefly: Downregulation of TYR in mouse B16-F10 cells incubated for 72 hrs by Western blot analysis. The data set is classed as functional, cell-based. The following applies: dose 0.1-2 µM.
Data set [10] concerns Cavia porcellus. As to the kind of experiment: Anti-melanogenic activity in guinea pig model of UV-induced skin pigmentation assessed as reduction in melanin production at 1 mM administered topically as PG formulation for 2 weeks measured after 3 days by Fontana-Masson staining based analysis. The data set is classed as functional, organism-based. The following applies: time 17.0 day.

The nature of data set [11]: Permeability in pig skin explant Franz diffusion cell model assessed as compound remaining transdermal at 2 mg/ml, TOPp measured for 0.5 to 24 hrs by HPLC analysis. The data set is classed as ADME, tissue-based, Sus scrofa, Skin of body. The following applies: topical_or_ocular, time 0.5-24 hrs.
The subject of data set [12] is Cavia porcellus. Briefly: Anti-melanogenic activity in guinea pig model of UV-induced skin pigmentation assessed as reduction in melanin production at 1 mM administered topically as CP formulation for 2 weeks measured after 3 days by Fontana-Masson staining based analysis. The data set is classed as functional, organism-based. The note with it: time 17.0 day.
The nature of data set [13]: Permeability in pig skin explant Franz diffusion cell model assessed as compound remaining intradermal at 2 mg/ml, TOPp measured after 4 hrs by HPLC analysis. Type of data set: ADME, tissue-based, Sus scrofa, Skin of body. The note with it: topical_or_ocular.
The subject of data set [14] is Cavia porcellus. Briefly: Anti-melanogenic activity in guinea pig model of UV-induced skin pigmentation assessed as inhibition of melanin production administered topically for 2 weeks measured after 3 days by Fontana-Masson staining based analysis. Type of data set: functional, organism-based. The note with it: time 17.0 day.
A short description of data set [15]: Permeability in pig skin explant Franz diffusion cell model assessed as compound remaining intradermal at 2 mg/ml, TOPp measured after 2 hrs by HPLC analysis. The data set is classed as ADME, tissue-based, Sus scrofa, Skin of body. The note with it: topical_or_ocular.
Data set [16] in a line: Drug distribution in pig skin epidermis at 2 mg/ml, TOPp measured after 2 hrs by OrbiSIMS imaging analysis. The data set is classed as ADME, tissue-based, Sus scrofa. The following applies: topical_or_ocular.
Data set [17] concerns Cavia porcellus. Briefly: Anti-melanogenic activity in guinea pig model of UV-induced skin pigmentation assessed as healing of scorching skin administered topically for 2 weeks measured after 3 days by Fontana-Masson staining based analysis. The data set is classed as functional, organism-based. The note with it: dose 0.5-1 mM, time 17.0 day.
Data set [18] has as its system B16-F10. As to the kind of experiment: Downregulation of MiTF level in mouse B16-F10 cells incubated for 72 hrs by Western blot analysis. Type of data set: functional, cell-based. The following applies: dose 0.1-2 µM. (In western blotting, separated proteins are transferred to a membrane and probed.)

The source made the active and inactive calls. The calls are words filed in the database; no cut-off is given here.

In the case of `COc1ccc(CCC(=O)c2ccc(O)cc2O)c(OC)c1OC`, the IC50 on Mushroom tyrosinase [1] and at Mushroom tyrosinase [2] was more than 10 µM throughout.
Regarding `O=C(CCc1ccc(O)c(O)c1)c1ccc(O)cc1O`, the IC50 at Mushroom tyrosinase [1] and at Mushroom tyrosinase [2] was more than 10 µM each time.
In the case of `COc1ccc(C(=O)CCc2ccc(O)cc2)c(O)c1`, the half-maximal inhibitory concentration (IC50) on Mushroom tyrosinase [1] and on Mushroom tyrosinase [2] was more than 10 µM each time.
As to `COc1ccc(C(=O)CCc2ccccc2O)cc1`, the IC50 on Mushroom tyrosinase [1] and on Mushroom tyrosinase [2] was more than 10 µM throughout.
In the case of `COc1ccc(C(=O)CCc2ccc(O)cc2O)c(O)c1`, the concentration for half-maximal inhibition (IC50) is 0.069 µM on Mushroom tyrosinase [1] and 0.183 µM at Mushroom tyrosinase [2].
The matching figures for `CC(C)c1ccc(C(=O)CCc2ccc(O)cc2O)cc1`: 0.232 µM and 0.644 µM.
In the same order, the values of `COc1cc(CCC(=O)c2ccc(O)cc2O)cc(OC)c1OC` are more than 10 µM and more than 10 µM.
With `COc1ccc(C(=O)CCc2ccccc2O)c(O)c1`, the IC50 on Mushroom tyrosinase [1] and at Mushroom tyrosinase [2] was more than 10 µM throughout.
As to `O=C(CCc1ccc(O)cc1)c1ccc(O)cc1O` [DAVIDIGENIN], the half-maximal inhibitory concentration (IC50) on Mushroom tyrosinase [1] and at Mushroom tyrosinase [2] was more than 10 µM each time.
In the case of `Cc1ccccc1C(=O)CCc1ccc(O)cc1O`, the IC50 on Mushroom tyrosinase [1] turned out to be 0.123 µM; at Mushroom tyrosinase [2] it was 0.239 µM.
The matching figures for `COc1cccc(CCC(=O)c2ccc(O)cc2O)c1OC`: more than 10 µM and more than 10 µM.
As to `COc1ccc(C(=O)CCc2ccc(O)cc2O)cc1O`, the IC50 was 0.069 µM at Mushroom tyrosinase [1] and 0.245 µM on Mushroom tyrosinase [2].
On to `COc1ccc(C(=O)CCc2ccc(O)cc2)cc1`, for which the IC50 on Mushroom tyrosinase [1] and at Mushroom tyrosinase [2] was more than 10 µM each time.
`O=C(CCc1ccc(O)cc1O)c1ccccc1O`: the IC50 is 0.069 µM at Mushroom tyrosinase [1] and 0.286 µM at Mushroom tyrosinase [2].
The matching figures for `Cc1cccc(C(=O)CCc2ccc(O)cc2O)c1`: 0.133 µM and 0.189 µM.
The matching figures for `O=C(CCc1ccccc1O)c1ccc(O)cc1O`: more than 10 µM and more than 10 µM.
In the same order, the values of `COc1cccc(CCC(=O)c2ccc(O)cc2O)c1` are more than 10 µM and more than 10 µM.
As to `O=C(CCc1ccc(O)cc1O)c1ccc(Br)cc1`, the IC50 stood at 0.11 µM at Mushroom tyrosinase [1] and 0.184 µM at Mushroom tyrosinase [2].
As for `O=C(CCc1ccc(O)cc1O)c1ccccc1`, the IC50 at Mushroom tyrosinase [1] was determined as 0.183 µM; on Mushroom tyrosinase [2] it was 0.625 µM.
In the same order, the values of `O=C(CCc1ccc(O)cc1O)c1ccc(-c2ccccc2)cc1` are 0.331 µM and 1.431 µM.
In the same order, the values of `O=C(CCc1ccc(O)cc1O)c1ccc(O)cc1` are 0.072 µM and 0.212 µM.
The matching figures for `O=C(CCc1cccc(O)c1)c1ccc(O)cc1O`: more than 10 µM and more than 10 µM.
`O=C(CCc1cccc([N+](=O)[O-])c1)c1ccc(O)cc1O`: the IC50 at Mushroom tyrosinase [1] and at Mushroom tyrosinase [2] was more than 10 µM in each case.
For the compound `COc1ccc(C(=O)CCc2ccc(OC)cc2OC)cc1`, the half-maximal inhibitory concentration (IC50) on Mushroom tyrosinase [1] and on Mushroom tyrosinase [2] was more than 10 µM throughout.
On to `COc1cc(C(=O)CCc2ccc(O)cc2O)ccc1O`, for which, in data set [3], the inhibition entry is “Active”. Further, the IC50 is 0.054 µM on Mushroom tyrosinase [1] and 0.165 µM on Mushroom tyrosinase [2]. For the same compound, the values for the Activity result with B16-F10 [4], with B16-F10 [6] and in the data set with A-375 [7] were “Non-Toxic”, “Dose-Dependent Effect” and “Non-Toxic”, respectively. Further, the inhibition entry in data set [5] is “Dose-Dependent Effect”. In the data set on A-375 [8], the result was Active.
As for `COc1ccc(CCC(=O)c2ccc(O)cc2O)cc1OC`, the IC50 at Mushroom tyrosinase [1] and at Mushroom tyrosinase [2] was more than 10 µM in each case.
In the case of `O=C(CCc1ccc(O)cc1O)c1ccc(O)cc1O`, the Activity entry in the data set with B16-F10 [9] is “Dose-Dependent Effect”; in the data set on B16-F10 [4] it was “Non-Toxic”; in data set [11], 1.2%; in data set [13] it was 3.56%; in the data set on Cavia porcellus [14] it was “Dose-Dependent Effect”; in data set [15], 26.77%. Besides, the Activity entry in the data set with B16-F10 [6] is “Dose-Dependent Effect”; in the data set with A-375 [7] it was “Toxic”; in the data set with Cavia porcellus [17], “Dose-Dependent Effect”; with B16-F10 [18] it was “Dose-Dependent Effect”. For the same compound, the inhibition result in data set [3] is “Active”. Besides, the IC50 on Mushroom tyrosinase [1] was found to be 0.05 µM; on Mushroom tyrosinase [2], 0.064 µM. For the same compound, the inhibition entry in [5] was “Dose-Dependent Effect”. Also, the outcome with Cavia porcellus [10], with Cavia porcellus [12] and with A-375 [8] was Active. For the same compound, the Drug uptake entry in [16] was “Active”.
For the compound `O=C(CCc1ccc(O)cc1O)c1ccc(Cl)cc1Cl`, the IC50 at Mushroom tyrosinase [1] turned out to be 0.119 µM; on Mushroom tyrosinase [2], 0.189 µM.
`COc1ccc(CCC(=O)c2ccc(O)cc2O)cc1O`: the IC50 on Mushroom tyrosinase [1] and on Mushroom tyrosinase [2] was more than 10 µM in each case.
As to `COc1ccc(CCC(=O)c2ccc(O)cc2O)c(OC)c1`, the IC50 on Mushroom tyrosinase [1] and on Mushroom tyrosinase [2] was more than 10 µM throughout.
In the case of `COc1ccc(CCC(=O)c2ccc(O)cc2O)c(O)c1`, the IC50 on Mushroom tyrosinase [1] and at Mushroom tyrosinase [2] was more than 10 µM in each case.
On to `COc1ccc(C(=O)CCc2ccc(O)cc2O)cc1`, for which the IC50 on Mushroom tyrosinase [1] worked out at 0.089 µM; on Mushroom tyrosinase [2], 0.171 µM.
The matching figures for `Cc1ccccc1CCC(=O)c1ccc(O)cc1O`: more than 10 µM and more than 10 µM.
